Data published in PubChem BioAssay (NCI).
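Protocol summary: plate cells (96-well), add compound at 5 concentrations, incubate 48 h, interpolate endpoints linearly. GI50: concentration for 50% inhibition of growth. TGI is the concentration that stops growth completely.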

Columns and labels:
Test in all cases: NCI anticancer screen, dose series, 48 h
SK-MEL-2 melanoma = test system: SK-MEL-2 melanoma
A498 renal = test system: A498 renal
IGROV1 ovarian = test system: IGROV1 ovarian
OVCAR-5 ovarian = test system: OVCAR-5 ovarian
U251 CNS = test system: U251 CNS
SF-539 CNS = test system: SF-539 CNS
BT-549 breast = test system: BT-549 breast
LOX IMVI melanoma = test system: LOX IMVI melanoma
DU-145 prostate = test system: DU-145 prostate
CCRF-CEM leukemia = test system: CCRF-CEM leukemia
SNB-19 CNS = test system: SNB-19 CNS
UACC-257 melanoma = test system: UACC-257 melanoma
MDA-MB-435 = test system: MDA-MB-435
SN12C renal = test system: SN12C renal
EKVX NSCLC = test system: EKVX NSCLC
UO-31 renal = test system: UO-31 renal
SK-MEL-5 melanoma = test system: SK-MEL-5 melanoma
NCI-H23 lung = test system: NCI-H23 lung
SF-268 CNS = test system: SF-268 CNS
HL-60(TB) leukemia = test system: HL-60(TB) leukemia
SW-620 colon = test system: SW-620 colon
KM12 colon = test system: KM12 colon
COLO 205 colon = test system: COLO 205 colon
PC-3 prostate = test system: PC-3 prostate
TK-10 renal = test system: TK-10 renal
OVCAR-3 ovarian = test system: OVCAR-3 ovarian
MCF7 breast = test system: MCF7 breast
HS 578T breast = test system: HS 578T breast
HCC-2998 colon = test system: HCC-2998 colon
SR leukemia = test system: SR leukemia
K-562 leukemia = test system: K-562 leukemia
NCI-H460 lung = test system: NCI-H460 lung
RPMI-8226 leukemia = test system: RPMI-8226 leukemia
SK-MEL-28 melanoma = test system: SK-MEL-28 melanoma
HT29 colon = test system: HT29 colon
NCI-H226 lung = test system: NCI-H226 lung
RXF 393 renal = test system: RXF 393 renal
T-47D breast = test system: T-47D breast
MDA-MB-231 breast = test system: MDA-MB-231 breast
SNB-75 CNS = test system: SNB-75 CNS
CAKI-1 renal = test system: CAKI-1 renal
HCT-116 colon = test system: HCT-116 colon
M14 melanoma = test system: M14 melanoma
NCI-H522 lung = test system: NCI-H522 lung
A549 NSCLC = test system: A549 NSCLC
SF-295 CNS = test system: SF-295 CNS
NCI/ADR-RES ovarian = test system: NCI/ADR-RES ovarian
OVCAR-8 ovarian = test system: OVCAR-8 ovarian
HCT-15 colon = test system: HCT-15 colon
ACHN renal = test system: ACHN renal
786-0 renal = test system: 786-0 renal
SK-OV-3 ovarian = test system: SK-OV-3 ovarian
HOP-92 NSCLC = test system: HOP-92 NSCLC
UACC-62 melanoma = test system: UACC-62 melanoma
OVCAR-4 ovarian = test system: OVCAR-4 ovarian
MALME-3M melanoma = test system: MALME-3M melanoma
MOLT-4 leukemia = test system: MOLT-4 leukemia
HOP-62 NSCLC = test system: HOP-62 NSCLC

Compound `COc1ccc(/C(=N\NC(N)=S)c2ccc(Cl)cc2)cc1OC` has a GI50 (SK-MEL-2 melanoma) of 1.67 µM, a TGI (SK-MEL-2 melanoma) of 4.67 µM and a GI50 (A498 renal) of 5.93 µM. For the same compound, the TGI (A498 renal) was 13.4 µM, the GI50 (IGROV1 ovarian) was 4.11 µM and the TGI (IGROV1 ovarian) was 20.4 µM. The GI50 (OVCAR-5 ovarian) was 5.44 µM, the TGI (OVCAR-5 ovarian) was 21.3 µM and the GI50 (U251 CNS) was 3.71 µM. The TGI (U251 CNS) was 15.4 µM, the GI50 (SF-539 CNS) was 2.63 µM and the TGI (SF-539 CNS) was 9.11 µM. It also gave a GI50 (BT-549 breast) of 2.4 µM, a TGI (BT-549 breast) of 6.33 µM and a GI50 (LOX IMVI melanoma) of 4.41 µM. It also gave a TGI (LOX IMVI melanoma) of 18.2 µM, a GI50 (DU-145 prostate) of 5.95 µM and a TGI (DU-145 prostate) of 22.5 µM. For the same compound, the GI50 (CCRF-CEM leukemia) was 2.63 µM, the TGI (CCRF-CEM leukemia) was 16.6 µM and the GI50 (SNB-19 CNS) was 5.22 µM. It also gave a TGI (SNB-19 CNS) of 21.5 µM, a GI50 (UACC-257 melanoma) of 8.13 µM and a TGI (UACC-257 melanoma) of 26.2 µM. It also gave a GI50 (MDA-MB-435) of 0.638 µM, a TGI (MDA-MB-435) of 2.84 µM and a GI50 (SN12C renal) of 4.63 µM. The TGI (SN12C renal) was 18.5 µM, the GI50 (EKVX NSCLC) was 4.95 µM and the TGI (EKVX NSCLC) was 28.3 µM. It also gave a GI50 (UO-31 renal) of 3.34 µM, a TGI (UO-31 renal) of 16.6 µM and a GI50 (SK-MEL-5 melanoma) of 4.14 µM. It also gave a TGI (SK-MEL-5 melanoma) of 14 µM, a GI50 (NCI-H23 lung) of 4.7 µM and a TGI (NCI-H23 lung) of 18.2 µM. It also gave a GI50 (SF-268 CNS) of 8.87 µM, a TGI (SF-268 CNS) of 30.3 µM and a GI50 (HL-60(TB) leukemia) of 1.77 µM. The TGI (HL-60(TB) leukemia) was 8.05 µM, the GI50 (SW-620 colon) was 3.65 µM and the TGI (SW-620 colon) was 17.5 µM. It also gave a GI50 (KM12 colon) of 3.56 µM, a TGI (KM12 colon) of 19.4 µM and a GI50 (COLO 205 colon) of 3.37 µM. The TGI (COLO 205 colon) was 10.8 µM, the GI50 (PC-3 prostate) was 3.76 µM and the TGI (PC-3 prostate) was 20.1 µM. The GI50 (TK-10 renal) was 11.1 µM, the TGI (TK-10 renal) was 31.6 µM and the GI50 (OVCAR-3 ovarian) was 3.47 µM. For the same compound, the TGI (OVCAR-3 ovarian) was 14.9 µM, the GI50 (MCF7 breast) was 3.12 µM and the TGI (MCF7 breast) was 15.5 µM. The GI50 (HS 578T breast) was 2.77 µM, the TGI (HS 578T breast) was 13.8 µM and the GI50 (HCC-2998 colon) was 4.36 µM. The TGI (HCC-2998 colon) was 16.5 µM, the GI50 (SR leukemia) was 2.43 µM and the TGI (SR leukemia) was > 39.7 µM. The GI50 (K-562 leukemia) was 1.04 µM, the TGI (K-562 leukemia) was > 41.1 µM and the GI50 (NCI-H460 lung) was 3.58 µM. It also gave a TGI (NCI-H460 lung) of 13 µM, a GI50 (RPMI-8226 leukemia) of 3.4 µM and a TGI (RPMI-8226 leukemia) of 16.4 µM. It also gave a GI50 (SK-MEL-28 melanoma) of 6.95 µM, a TGI (SK-MEL-28 melanoma) of 21.7 µM and a GI50 (HT29 colon) of 2.69 µM. For the same compound, the TGI (HT29 colon) was 9.48 µM, the GI50 (NCI-H226 lung) was 2.72 µM and the TGI (NCI-H226 lung) was 17.6 µM. The GI50 (RXF 393 renal) was 1.94 µM, the TGI (RXF 393 renal) was 7.26 µM and the GI50 (T-47D breast) was 3.16 µM. The TGI (T-47D breast) was 25 µM, the GI50 (MDA-MB-231 breast) was 4.48 µM and the TGI (MDA-MB-231 breast) was 18.2 µM. It also gave a GI50 (SNB-75 CNS) of 1.69 µM, a TGI (SNB-75 CNS) of 6.73 µM and a GI50 (CAKI-1 renal) of 3.28 µM. The TGI (CAKI-1 renal) was 17.1 µM, the GI50 (HCT-116 colon) was 3.59 µM and the TGI (HCT-116 colon) was 15.6 µM. The GI50 (M14 melanoma) was 2.93 µM, the TGI (M14 melanoma) was 15.2 µM and the GI50 (NCI-H522 lung) was 1.37 µM. It also gave a TGI (NCI-H522 lung) of 4.62 µM, a GI50 (A549 NSCLC) of 5.94 µM and a TGI (A549 NSCLC) of 32.3 µM. The GI50 (SF-295 CNS) was 3.56 µM, the TGI (SF-295 CNS) was 14.2 µM and the GI50 (NCI/ADR-RES ovarian) was 2.34 µM. It also gave a TGI (NCI/ADR-RES ovarian) of 9.89 µM, a GI50 (OVCAR-8 ovarian) of 4.41 µM and a TGI (OVCAR-8 ovarian) of 20.5 µM. It also gave a GI50 (HCT-15 colon) of 2.06 µM, a TGI (HCT-15 colon) of 15.6 µM and a GI50 (ACHN renal) of 5.89 µM. The TGI (ACHN renal) was 29.2 µM, the GI50 (786-0 renal) was 7.54 µM and the TGI (786-0 renal) was 23.1 µM. The GI50 (SK-OV-3 ovarian) was 3.38 µM, the TGI (SK-OV-3 ovarian) was 16.1 µM and the GI50 (HOP-92 NSCLC) was 4.67 µM. It also gave a TGI (HOP-92 NSCLC) of 17.4 µM, a GI50 (UACC-62 melanoma) of 3.7 µM and a TGI (UACC-62 melanoma) of 19.6 µM. For the same compound, the GI50 (OVCAR-4 ovarian) was 7.01 µM, the TGI (OVCAR-4 ovarian) was 40.7 µM and the GI50 (MALME-3M melanoma) was 3.54 µM. The TGI (MALME-3M melanoma) was 19.2 µM, the GI50 (MOLT-4 leukemia) was 4.91 µM and the TGI (MOLT-4 leukemia) was 29.2 µM. For the same compound, the GI50 (HOP-62 NSCLC) was 4.38 µM and the TGI (HOP-62 NSCLC) was 20.8 µM.
